Assay results reported in ChEMBL document CHEMBL1158784, “Sorbicillin analogues and related dimeric compounds from Penicillium notatum” (2005).
The source made the active and inactive calls. The rule behind the calls is not given here.

Tests used:
[1] = system: Staphylococcus aureus; test: Antimicrobial activity against Staphylococcus aureus at 20 ug/9 mm disk by agar diffusion method; format: functional
[2] = system: Streptomyces viridochromogenes; test: Antimicrobial activity against Streptomyces viridochromogenes Tu57 at 20 ug/9 mm disk by agar diffusion method; format: functional, organism-based
[3] = system: Escherichia coli; test: Antimicrobial activity against Escherichia coli at 20 ug/9 mm disk by agar diffusion method; format: functional, organism-based
[4] = system: Candida albicans; test: Antimicrobial activity against Candida albicans at 20 ug/9 mm disk by agar diffusion method; format: functional
[5] = system: Rhizomucor miehei; test: Antimicrobial activity against Mucor miehei at 20 ug/9 mm disk by agar diffusion method; format: functional, organism-based
[6] = system: Chlorella vulgaris; test: Antimicrobial activity against Chlorella vulgaris at 20 ug/9 mm disk by agar diffusion method; format: functional, organism-based
[7] = system: Chlorella sorokiniana; test: Antimicrobial activity against Chlorella sorokiniana at 20 ug/9 mm disk by agar diffusion method; format: functional, organism-based
[8] = system: Desmodesmus subspicatus; test: Antimicrobial activity against Scenedesmus subspicatus at 20 ug/9 mm disk by agar diffusion method; format: functional, organism-based
[9] = system: Bacillus subtilis; test: Antimicrobial activity against Bacillus subtilis at 20 ug/9 mm disk by agar diffusion method; format: functional

SMILES | inhibition zone (IZ) [1] [mm] | Activity [2] | Activity [3] | inhibition zone (IZ) [4] [mm] | Activity [5] | Activity [6] | Activity [7] | Activity [8] | inhibition zone (IZ) [9] [mm] | Activity [1] | Activity [4] | Activity [9]
C/C=C/C=C/C(O)=C1/C(=O)[C@](C)(O)C(=O)C(C)=C1O | 12 | inactive | inactive | 13 | inactive | inactive | inactive | inactive | 12 | – | – | –
C/C=C/CCC(=O)c1cc(C)c(O)c(C)c1O | 12 | inactive | inactive | 13 | inactive | inactive | inactive | inactive | 12 | – | – | –
CC(C)=CCC/C(C)=C/CC/C(C)=C/C[C@@]12O[C@@H]1[C@H](O)C(C)=CC2=O | 12 | inactive | inactive | 13 | inactive | inactive | inactive | inactive | 12 | – | – | –
C/C=C/C=C/C(=O)C1=C(C)C(=O)C(O)=C(C)C1=O | – | inactive | inactive | – | inactive | inactive | inactive | inactive | – | inactive | inactive | inactive
C/C=C/C=C/C(=O)C1=C[C@@]2(C)[C@H]3C(C(=O)/C=C/C=C/C)=C(O)C(C)=C(O)[C@@]3(C)O[C@@]2(O)[C@@](C)(O)C1=O | – | inactive | inactive | – | inactive | inactive | inactive | inactive | – | inactive | inactive | inactive
C/C=C/C=C/C(O)=C1\C(=O)C(C)=C(O)[C@@](C)(O)C1=O | – | inactive | inactive | – | inactive | inactive | inactive | inactive | – | inactive | inactive | inactive
C/C=C/CCC(=O)c1c(C)c(O)c(O)c(C)c1O | – | inactive | inactive | – | inactive | inactive | inactive | inactive | – | inactive | inactive | inactive
C/C=C/C=C/C(=O)[C@]12C(=O)C(C)=C(O)[C@@](C)(O)[C@H]1[C@H]1\C(=C(O)/C=C/C=C/C)C(=O)[C@]2(C)C(=O)[C@@]1(C)O [BISORBICILLINOL] | 12 | inactive | inactive | 13 | inactive | inactive | inactive | inactive | 12 | – | – | –
C/C=C/C=C/C(O)=C1/C(=O)[C@]2(C)C(=O)[C@@](C)(O)[C@H]1[C@H]1[C@]2(C(=O)CC/C=C/C)C(=O)C(C)=C(O)[C@@]1(C)O [BISVERTINOQUINOL] | 12 | inactive | inactive | 13 | inactive | inactive | inactive | inactive | 12 | – | – | –
C/C=C/C=C/C(O)=C1\C(=O)[C@]2(C)C(=O)[C@@](C)(O)[C@H]1[C@H]1OC(=O)C[C@]12CO [REZISHANONE A] | 12 | inactive | inactive | 13 | inactive | inactive | inactive | inactive | 12 | – | – | –
C/C=C/C=C/C(O)=C1\C(=O)[C@]2(C)C(=O)[C@@](C)(O)[C@H]1C[C@@H]2OCCCC [REZISHANONE B] | 12 | inactive | inactive | 13 | inactive | inactive | inactive | inactive | 12 | – | – | –
C/C=C/C=C/C(O)=C1\C(=O)[C@]2(C)C(=O)[C@@](C)(O)[C@H]1C[C@@H]2OCC [REZISHANONE C] | 12 | inactive | inactive | 13 | inactive | inactive | inactive | inactive | 12 | – | – | –
C/C=C/CC/C(O)=C1\C(=O)[C@]2(C)C(=O)[C@@](C)(O)[C@H]1C[C@@H]2OCC [REZISHANONE D] | 12 | inactive | inactive | 13 | inactive | inactive | inactive | inactive | 12 | – | – | –
C/C=C/CCC(=O)c1cc(C)c(O)cc1O [SOHIRNONE A] | 12 | inactive | inactive | 13 | inactive | inactive | inactive | inactive | 12 | – | – | –
C/C=C/C=C/C(=O)c1c(C)c(O)c(O)c(C)c1O [SOHIRNONE B] | 12 | inactive | inactive | 13 | inactive | inactive | inactive | inactive | 12 | – | – | –
